ChEMBL document CHEMBL1649287, “Postantibiotic effect of ceftaroline against gram-positive organisms” (2009)
Converted amounts (≈) assume the structure as drawn.

What was measured:
Format in all cases: functional
Enterococcus faecalis [1] = assay: Antimicrobial activity against vancomycin-resistant Enterococcus faecalis 609 assessed as time required to induce post antibiotic sub-MIC effect at 0.2 times MIC after 1 hr by plate counting method; details: Enterococcus faecalis, 609, 1 h
Streptococcus pneumoniae [2] = assay: Antimicrobial activity against Penicillin-, erythromycin-resistant Streptococcus pneumoniae 37 assessed as time required to induce sub-MIC effect at 0.4 times MIC after 1 hr by plate counting method; details: Streptococcus pneumoniae, 37, 1 h
Enterococcus faecalis [3] = assay: Antimicrobial activity against vancomycin-resistant Enterococcus faecalis 609 by microdilution method
Streptococcus pneumoniae [4] = assay: Antimicrobial activity against Penicillin-intermediate Streptococcus pneumoniae s1234 assessed as time required to induce sub-MIC effect at 0.4 times MIC after 1 hr by plate counting method; details: s1234, 1 h
Streptococcus pneumoniae [5] = assay: Antimicrobial activity against Penicillin-susceptible Streptococcus pneumoniae s502 assessed as time required to induce post antibiotic sub-MIC effect at 0.4 times MIC after 1 hr by plate counting method; details: s502, 1 h
Staphylococcus aureus [6] = assay: Antimicrobial activity against methicillin-resistant, vancomycin-resistant Staphylococcus aureus 770 assessed as post antibiotic effect at 10 times MIC after 1 hr by plate counting method; details: Staphylococcus aureus, 770, 1 h
Staphylococcus aureus [7] = assay: Antimicrobial activity against methicillin-resistant, vancomycin-resistant Staphylococcus aureus 770 assessed as time required to induce sub-MIC effect at 0.4 times MIC after 1 hr by plate counting method; details: Staphylococcus aureus, 770, 1 h
Staphylococcus aureus [8] = assay: Antimicrobial activity against methicillin-resistant, vancomycin-susceptible Staphylococcus aureus vs1 assessed as time required to induce post antibiotic sub-MIC effect at 0.2 times MIC after 1 hr by plate counting method; details: vs1, 1 h
Enterococcus faecalis [9] = assay: Antimicrobial activity against vancomycin-sensitive Enterococcus faecalis 10 assessed as time required to induce sub-MIC effect at 0.4 times MIC after 1 hr by plate counting method; details: Enterococcus faecalis, 10, 1 h
Streptococcus pneumoniae [10] = assay: Antimicrobial activity against Penicillin-susceptible Streptococcus pneumoniae s502 assessed as time required to induce sub-MIC effect at 0.3 times MIC after 1 hr by plate counting method; details: s502, 1 h
Enterococcus faecalis [11] = assay: Antimicrobial activity against vancomycin-resistant Enterococcus faecalis 266 assessed as time required to induce post antibiotic sub-MIC effect at 0.3 times MIC after 1 hr by plate counting method; details: Enterococcus faecalis, 266, 1 h
Streptococcus pneumoniae [12] = assay: Antimicrobial activity against Penicillin-intermediate Streptococcus pneumoniae s1234 assessed as time required to induce sub-MIC effect at 0.3 times MIC after 1 hr by plate counting method
Staphylococcus aureus [13] = assay: Antimicrobial activity against methicillin-resistant, vancomycin-intermediate Staphylococcus aureus 510 by microdilution method
Streptococcus pneumoniae [14] = assay: Antimicrobial activity against Penicillin-intermediate Streptococcus pneumoniae s1234 by microdilution method
Enterococcus faecalis [15] = assay: Antimicrobial activity against vancomycin-sensitive Enterococcus faecalis ATCC 29212 assessed as time required to induce sub-MIC effect at 0.4 times MIC after 1 hr by plate counting method; details: ATCC 29212, 1 h
Streptococcus pneumoniae [16] = assay: Antimicrobial activity against Penicillin-, erythromycin-resistant Streptococcus pneumoniae 37 assessed as time required to induce sub-MIC effect at 0.2 times MIC after 1 hr by plate counting method; details: Streptococcus pneumoniae, 37, 1 h
Enterococcus faecalis [17] = assay: Antimicrobial activity against vancomycin-sensitive Enterococcus faecalis 20 assessed as time required to induce post antibiotic sub-MIC effect at 0.4 times MIC after 1 hr by plate counting method; details: Enterococcus faecalis, 20, 1 h
Staphylococcus aureus [18] = assay: Antimicrobial activity against methicillin-susceptible, vancomycin-susceptible Staphylococcus aureus sox1 assessed as time required to induce post antibiotic sub-MIC effect at 0.3 times MIC after 1 hr by plate counting method; details: sox1, 1 h
Staphylococcus aureus [19] = assay: Antimicrobial activity against methicillin-susceptible, vancomycin-susceptible Staphylococcus aureus ATCC 29213 assessed as time required to induce sub-MIC effect at 0.2 times MIC after 1 hr by plate counting method; details: ATCC 29213, 1 h
Enterococcus faecalis [20] = assay: Antimicrobial activity against vancomycin-sensitive Enterococcus faecalis 10 assessed as time required to induce sub-MIC effect at 0.2 times MIC after 1 hr by plate counting method; details: Enterococcus faecalis, 10, 1 h
Streptococcus pneumoniae [21] = assay: Antimicrobial activity against Penicillin-, erythromycin-resistant Streptococcus pneumoniae 37 assessed as time required to induce post antibiotic sub-MIC effect at 0.3 times MIC after 1 hr by plate counting method; details: Streptococcus pneumoniae, 37, 1 h
Enterococcus faecalis [22] = assay: Antimicrobial activity against vancomycin-sensitive Enterococcus faecalis 20 by microdilution method
Enterococcus faecalis [23] = assay: Antimicrobial activity against vancomycin-sensitive Enterococcus faecalis ATCC 29212 assessed as time required to induce sub-MIC effect at 0.3 times MIC after 1 hr by plate counting method; details: ATCC 29212, 1 h
Staphylococcus aureus [24] = assay: Antimicrobial activity against methicillin-resistant, vancomycin-hetroresistant Staphylococcus aureus 618 assessed as time required to induce post antibiotic sub-MIC effect at 0.3 times MIC after 1 hr by plate counting method; details: Staphylococcus aureus, 618, 1 h
Enterococcus faecalis [25] = assay: Antimicrobial activity against vancomycin-sensitive Enterococcus faecalis ATCC 29212 assessed as post antibiotic effect at 10 times MIC after 1 hr by plate counting method; details: ATCC 29212, 1 h
Streptococcus pneumoniae [26] = assay: Antimicrobial activity against Penicillin-susceptible Streptococcus pneumoniae ATCC 49617 assessed as time required to induce post antibiotic sub-MIC effect at 0.3 times MIC after 1 hr by plate counting method; details: ATCC 49617, 1 h
Enterococcus faecalis [27] = assay: Antimicrobial activity against vancomycin-sensitive Enterococcus faecalis ATCC 29212 assessed as time required to induce post antibiotic sub-MIC effect at 0.4 times MIC after 1 hr by plate counting method; details: ATCC 29212, 1 h
Staphylococcus aureus [28] = assay: Antimicrobial activity against methicillin-susceptible, vancomycin-susceptible Staphylococcus aureus ATCC 29213 assessed as post antibiotic effect at 10 times MIC after 1 hr by plate counting method; details: ATCC 29213, 1 h
Enterococcus faecalis [29] = assay: Antimicrobial activity against vancomycin-sensitive Enterococcus faecalis ATCC 29212 by microdilution method
Enterococcus faecalis [30] = assay: Antimicrobial activity against vancomycin-sensitive Enterococcus faecalis 10 by microdilution method
Enterococcus faecalis [31] = assay: Antimicrobial activity against vancomycin-sensitive Enterococcus faecalis 10 assessed as time required to induce post antibiotic sub-MIC effect at 0.2 times MIC after 1 hr by plate counting method; details: Enterococcus faecalis, 10, 1 h
Streptococcus pneumoniae [32] = assay: Antimicrobial activity against Penicillin-susceptible Streptococcus pneumoniae ATCC 49617 assessed as time required to induce post antibiotic sub-MIC effect at 0.4 times MIC after 1 hr by plate counting method; details: ATCC 49617, 1 h
Streptococcus pneumoniae [33] = assay: Antimicrobial activity against Penicillin-susceptible Streptococcus pneumoniae ATCC 49617 assessed as post antibiotic effect at 10 times MIC after 1 hr by plate counting method; details: ATCC 49617, 1 h
Enterococcus faecalis [34] = assay: Antimicrobial activity against vancomycin-resistant Enterococcus faecalis 266 assessed as time required to induce sub-MIC effect at 0.2 times MIC after 1 hr by plate counting method; details: Enterococcus faecalis, 266, 1 h
Streptococcus pneumoniae [35] = assay: Antimicrobial activity against Penicillin-susceptible Streptococcus pneumoniae s502 by microdilution method
Streptococcus pneumoniae [36] = assay: Antimicrobial activity against Penicillin-susceptible Streptococcus pneumoniae s502 assessed as time required to induce sub-MIC effect at 0.4 times MIC after 1 hr by plate counting method; details: s502, 1 h

CCO/N=C(\C(=O)N[C@@H]1C(=O)N2C(C(=O)[O-])=C(Sc3nc(-c4cc[n+](C)cc4)cs3)CS[C@H]12)c1nsc(NP(=O)(O)O)n1 [CEFTAROLINE FOSAMIL]
time (Enterococcus faecalis [1]): 3 h
time (Streptococcus pneumoniae [2]): 0.5 h
MIC (Enterococcus faecalis [3]): 1 µg/mL (≈ 1.46 µM)
PAE (Streptococcus pneumoniae [4]): 0.6 h
PAE (Streptococcus pneumoniae [5]): 4.5 h
PAE (Staphylococcus aureus [6]): 1.3 h
time (Staphylococcus aureus [7]): 0.6 h
time (Staphylococcus aureus [8]): 2.7 h
time (Enterococcus faecalis [9]): 1.8 h
PAE (Streptococcus pneumoniae [10]): 0.3 h
time (Enterococcus faecalis [11]): > 10.3 h
PAE (Streptococcus pneumoniae [12]): 0 h
MIC (Staphylococcus aureus [13]): 0.5 µg/mL (≈ 0.73 µM)
MIC (Streptococcus pneumoniae [14]): 0.12 µg/mL (≈ 0.175 µM)
PAE (Enterococcus faecalis [15]): 10 h
time (Streptococcus pneumoniae [16]): 0.5 h
PAE (Enterococcus faecalis [17]): 10.5 h
PAE (Staphylococcus aureus [18]): 3.6 h
PAE (Staphylococcus aureus [19]): 0.2 h
PAE (Enterococcus faecalis [20]): 0.8 h
time (Streptococcus pneumoniae [21]): 3 h
MIC (Enterococcus faecalis [22]): 0.5 µg/mL (≈ 0.73 µM)
PAE (Enterococcus faecalis [23]): 3.6 h
time (Staphylococcus aureus [24]): 2.7 h
PAE (Enterococcus faecalis [25]): 0.8 h
PAE (Streptococcus pneumoniae [26]): 5.9 h
PAE (Enterococcus faecalis [27]): > 10.6 h
PAE (Staphylococcus aureus [28]): 1 h
MIC (Enterococcus faecalis [29]): 1 µg/mL (≈ 1.46 µM)
MIC (Enterococcus faecalis [30]): 0.5 µg/mL (≈ 0.73 µM)
PAE (Enterococcus faecalis [31]): 3.2 h
PAE (Streptococcus pneumoniae [32]): 7.2 h
PAE (Streptococcus pneumoniae [33]): 1.6 h
time (Enterococcus faecalis [34]): 1.4 h
MIC (Streptococcus pneumoniae [35]): 0.008 µg/mL (≈ 0.0117 µM)
PAE (Streptococcus pneumoniae [36]): 2.5 h
